Assay results published in patent US9809551B2, “Solid forms of Ivacaftor and processes for the preparation thereof” (Apotex Inc., priority 2013, dated 2017).

Test: Storage stability of Ivacaftor APO-I polymorph at 25±2° C. / 60%±5% RH
Type: physicochemical
Protocol: Ivacaftor APO-I polymorph samples were packed in an inner antistatic polyethylene bag sealed with a cable tie encased within a heat sealed composite aluminum out bag under nitrogen within a HDPE drum. The samples were then tested for stability after storing at 25±2° C. with 60%±5% relative humidity (RH). Impurities, drug concentrations, polymorph stability and other parameters were measured at intervals during the storage.

- Assay (by HPLC) (12 months): 99.8%
- Description (12 months): Off white
- Assay (by HPLC) (Initial): 99.1%
- Description (Initial): Off white
- XRPD (polymorph stability) (Initial): APO-I
SMILES: CC(C)(C)c1cc(C(C)(C)C)c(NC(=O)c2c[nH]c3ccccc3c2=O)cc1O [Ivacaftor APO-I polymorph, N-(2,4-di-tert-butyl-5-hydroxyphenyl)-1,4-dihydro-4-oxoquinoline-3-carboxamide]
